From patent publication US10144713B1, “Bis-cyclic guanidines as antibacterial agents” (UNIVERSITY OF SOUTH FLORIDA, priority 2017, dated 2018)
Like-named read-outs stand apart in the source and are kept apart here.

Legend:
Assay type in all cases: cell-based
[1] = test system: E. coli (ATCC 25922); assay: MIC against E. coli; details: Gram −, 16 h, 37° C.; for MIC: Escherichia coli, ATCC25922
Experimental: (§1) Minimum Inhibitory Concentrations (MICs) Against Bacteria.
(§2) The antimicrobial activity of the compounds was tested on the following six bacteria strains: K. pneumoniae (ATCC 13383), P. aeruginosa (ATCC27853), E. coli (ATCC 25922), vancomycin-resistant Enterococcus faecalis(ATCC 700802), Methicillin-resistant S. aureus (MRSA, ATCC 33591), Methicillin-resistant S. epidermidis (MRSE, RP62A). The procedures were followed as reported previously (Hancock et al., Immunobiology 2006, 211, 315-322). Briefly, a single colony of each bacterium was inoculated in 3 mL TSB medium and incubated overnight at 37° C. Then the bacteria culture was diluted at 1:100 and the bacteria were allowed to grow to mid-logarithmic phase. Next, 50 μL of 2-fold serial dilutions of compounds (0.1-25 μg/mL) were added the 96-well plate containing aliquots of 50 μL of bacteria suspension (1×10^6 CFU/mL) in each well. The mixture was incubated at 37° C. for 16 h, and their absorption at 600 nm wavelength was read on a Biotek Synergy HT microtiter plate reader. […] The experiments were repeated at least three times with duplicates each time. HC50 means the concentration causing 50% hemolysis.

[2] = test system: Methicillin-resistant S. aureus (MRSA, ATCC 33591); assay: MIC against MRSA; details: Gram +, 16 h, 37° C.; for MIC: Staphylococcus aureus
Experimental: as §1, §2

[3] = test system: six bacteria strains (K. pneumoniae, P. aeruginosa, E. coli, VRE, MRSA, MRSE); assay: Antimicrobial activity on the panel of six bacteria strains
Experimental: as §1, §2

[4] = test system: P. aeruginosa (ATCC27853); assay: MIC against P. aeruginosa; details: for MIC: Pseudomonas aeruginosa, ATCC27853
Experimental: as §1, §2

[5] = test system: K. pneumoniae (ATCC 13383); assay: MIC against K. pneumoniae; details: Gram −, 16 h, 37° C.; for MIC: Klebsiella pneumoniae, ATCC13383
Experimental: as §1, §2

[6] = test system: Methicillin-resistant S. epidermidis (MRSE, RP62A); assay: MIC against MRSE; details: Gram +, 16 h, 37° C.; for MIC: Staphylococcus epidermidis, MRSE
Experimental: as §1, §2

[7] = test system: vancomycin-resistant Enterococcus faecalis (ATCC 700802); assay: MIC against VRE; details: Gram +; 16 h, 37° C.
Experimental: as §1, §2

[8] = test system: human red blood cells (hRBCs); assay: Hemolytic assay; details: for Hemolysis (HC50): concentration causing 50% hemolysis, hRBCs, 37° C., 1 h
Experimental: The freshly drawn, K2EDTA treated human red blood cells (hRBCs) were washed with 1×PBS buffer, and centrifuged at 3500 rpm for 10 min. The step was repeated until the supernatant became clear. The supernatant was removed, and the RBCs were diluted into 5% v/v suspension. 50 μL of the suspension was incubated with 50 μL of compounds of different concentrations at 37° C. for 1 h. The mixture was centrifuged at 3500 rpm for 10 min. Subsequently, to 30 μL of the supernatant 100 μL PBS was added, and the absorbance of the mixture at 540 nm was read on a Biotek Synergy HT plate reader. The positive control was 2% Triton X-100, and the negative control was 1×PBS alone. The hemolysis activity was calculated by the formula % hemolysis=(Abssample−AbsPBS)/(AbsTriton−AbsPBS)×100%. The experiment was repeated at least three times with duplicates each time.

[9] = read-out: MIC against Gram-positive bacteria
[10] = read-out: MIC for Gram-negative bacteria (except for P. aeruginosa)

Row | Compound | MIC [1] | MIC [2] | MIC ([4]; Gram −, 16 h, 37° C.) | MIC [5] | MIC [6] | MIC [7] | Hemolysis (HC50) [8] | also measured
1 | CCCCCCCCN1C(=N)N(CC(=O)Nc2ccc(NC(=O)CN3C[C@H](Cc4ccccc4)N(CCCCCCCC)C3=N)cc2)C[C@@H]1Cc1ccccc1 [Compound 17] | > 25 µg/mL | 1.5 µg/mL |  |  |  |  |  | antibacterial activity against the tested bacteria (in words) [3]: decreased activity
2 | CCCCCCCCN1C(=N)N(CC(=O)Nc2cccc(NC(=O)CN3C[C@H](Cc4ccccc4)N(CCCCCCCC)C3=N)c2)C[C@@H]1Cc1ccccc1 [Compound 18] | > 25 µg/mL | 1.5 µg/mL |  |  |  |  |  | antibacterial activity against the tested bacteria (in words) [3]: decreased activity
3 | N#CNc1cccc(NC(=O)CN2C[C@H](Cc3ccccc3)N(CCCc3ccccc3)C2=N)c1 [Compound 7] | > 25 µg/mL | 12 to 25 µg/mL |  |  |  |  |  | antibacterial activity against the tested bacteria (in words) [3]: negligible activity
4 | N=C1N(CC(=O)Nc2cccc(NC(N)=O)c2)C[C@H](Cc2ccccc2)N1CCCc1ccccc1 [Compound 8] | > 25 µg/mL | 12 to 25 µg/mL |  |  |  |  |  | antibacterial activity against the tested bacteria (in words) [3]: negligible activity
5 | N=C1N(CC(=O)Nc2cccc(NC(=O)CN3C[C@H](Cc4ccccc4)N(CCCc4ccccc4)C3=N)c2)C[C@H](Cc2ccccc2)N1CCCc1ccccc1 [Compound 6] | 3 to 6 µg/mL | 1.5 to 3 µg/mL | 12 to 25 µg/mL | 3 µg/mL | 1.5 µg/mL | 1.5 µg/mL | >250 µg/mL | MIC [3, 9]: < 3 µg/mL; MIC [3, 10]: < 3 µg/mL
6 | N=C1N(CC(=O)Nc2ccc(-c3ccc(NC(=O)CN4C[C@H](Cc5ccccc5)N(CCCc5ccccc5)C4=N)cc3)cc2)C[C@H](Cc2ccccc2)N1CCCc1ccccc1 [Compound 10] | > 25 µg/mL | > 25 µg/mL |  |  |  |  |  | antibacterial activity against the tested bacteria (in words) [3]: not active
7 | N=C1N(CC(=O)Nc2cccc(NC(=O)CN3C[C@H](Cc4ccccc4)N(CCC45CC6CC(CC(C6)C4)C5)C3=N)c2)C[C@H](Cc2ccccc2)N1CCC12CC3CC(CC(C3)C1)C2 [Compound 22] | > 25 µg/mL | 3 µg/mL |  |  |  |  |  | 
8 | N=C1N(CC(=O)NCCCCCCNC(=O)CN2C[C@H](Cc3ccccc3)N(CCCc3ccccc3)C2=N)C[C@H](Cc2ccccc2)N1CCCc1ccccc1 [Compound 9] | 3 to 6 µg/mL | 0.75 µg/mL | > 25 µg/mL | 3 to 6 µg/mL | 0.75 to 1.5 µg/mL | 1.5 to 3 µg/mL | 100 µg/mL | activity against P. aeruginosa (in words) [4]: not active; HC50 ([8]; text b247, unit as printed): 100 µg/mL
9 | Colistin [reference compound] |  |  |  |  |  |  |  | MIC E. coli [1]: 0.5 µg/mL; MIC P. aeruginosa ([4]; Gram −, 16 h, 37° C.): 1.0 µg/mL; MIC K. pneumoniae [5]: 0.5 µg/mL; MIC MRSA [2]: >50 µg/mL; MIC MRSE [6]: >50 µg/mL; MIC VRE [7]: >50 µg/mL
10 | N=C1N[C@@H](Cc2ccccc2)CN1CC(=O)NCCCCNC(=O)CN1C[C@H](Cc2ccccc2)NC1=N [Compound 1] | > 25 µg/mL | > 25 µg/mL |  |  |  |  |  | 
11 | N=C1N(CC(=O)Nc2ccc(NC(=O)CN3C[C@H](Cc4ccccc4)N(CCCc4ccccc4)C3=N)cc2)C[C@H](Cc2ccccc2)N1CCCc1ccccc1 [Compound 5] | 1.5 to 3 µg/mL | 0.33 µg/mL | 12 to 25 µg/mL | 1.5 to 3 µg/mL | 0.75 µg/mL | 0.75 µg/mL | 140 µg/mL | MIC [3, 9]: < 3 µg/mL; MIC [3, 10]: < 3 µg/mL
12 | CCCCCCN1C(=N)N(CC(=O)Nc2cccc(NC(=O)CN3C[C@H](CC(C)C)N(CCCCCC)C3=N)c2)C[C@@H]1CC(C)C [Compound 23] | 1.5 to 3 µg/mL | 1.5 µg/mL | 6 to 12 µg/mL | 0.75 µg/mL | 1.5 µg/mL | 0.75 µg/mL | 200 µg/mL | 
13 | N=C1N(CC(=O)Nc2ccc(NC(=O)CN3C[C@H](Cc4ccccc4)N(CCC45CC6CC(CC(C6)C4)C5)C3=N)cc2)C[C@H](Cc2ccccc2)N1CCC12CC3CC(CC(C3)C1)C2 [Compound 21] | > 25 µg/mL | 6 µg/mL |  |  |  |  |  | 
14 | CCN1C(=N)N(CC(=O)Nc2ccc(NC(=O)CN3C[C@H](Cc4ccccc4)N(CC)C3=N)cc2)C[C@@H]1Cc1ccccc1 [Compound 3] | 1.5 µg/mL | 6 to 12 µg/mL | > 25 µg/mL | > 25 µg/mL | > 25 µg/mL | > 25 µg/mL |  | MIC MRSA [2]: 6~12 μg/mL
15 | CCN1C(=N)N(CC(=O)Nc2cccc(NC(=O)CN3C[C@H](Cc4ccccc4)N(CC)C3=N)c2)C[C@@H]1Cc1ccccc1 [Compound 4] | 3 µg/mL | 6 to 12 µg/mL | > 25 µg/mL | > 25 µg/mL | > 25 µg/mL | > 25 µg/mL |  | MIC E. coli [1]: 3.0 µg/mL; MIC MRSA [2]: 6~12 μg/mL
16 | CCCCCCN1C(=N)N(CC(=O)NCCCCCCCCNC(=O)CN2C[C@H](Cc3ccccc3)N(CCCCCC)C2=N)C[C@@H]1Cc1ccccc1 [Compound 15] | 0.75 to 1.5 µg/mL | 0.75 µg/mL | > 25 µg/mL | 1.5 to 3 µg/mL | 1.5 µg/mL | 0.325 µg/mL | >250 µg/mL | activity against P. aeruginosa (in words) [4]: reduced activity
17 | N=C1N(CC(=O)Nc2ccc(NC(=O)CN3C[C@H](Cc4ccccc4)N(CCCC4CCCCC4)C3=N)cc2)C[C@H](Cc2ccccc2)N1CCCC1CCCCC1 [Compound 19] | 12 µg/mL | 0.75 µg/mL | > 25 µg/mL | 1.5 to 3 µg/mL | 0.33 µg/mL | 0.75 µg/mL | 5 µg/mL | 
18 | N=C1N[C@@H](Cc2ccccc2)CN1CC(=O)Nc1cccc(NC(=O)CN2C[C@H](Cc3ccccc3)NC2=N)c1 [Compound 2] | > 25 µg/mL | > 25 µg/mL |  |  |  |  |  | 
19 | CCCCCCCCCC(=O)N[C@@H](Cc1c[nH]c2ccccc12)C(=O)N[C@H](CC(N)=O)C(=O)N[C@@H](CC(=O)O)C(=O)N[C@@H]1C(=O)NCC(=O)N[C@@H](CCCN)C(=O)N[C@@H](CC(=O)O)C(=O)N[C@H](C)C(=O)N[C@@H](CC(=O)O)C(=O)NCC(=O)N[C@H](CO)C(=O)N[C@@H]([C@H](C)CC(=O)O)C(=O)N[C@@H](CC(=O)c2ccccc2N)C(=O)O[C@@H]1C [Daptomycin, reference compound] | > 50 µg/mL | 0.5 µg/mL | > 50 µg/mL | > 50 µg/mL | 0.5 µg/mL | 1 µg/mL |  | 
20 | N=C1N(CC(=O)Nc2cccc(NC(=O)CN3C[C@H](Cc4ccccc4)N(CCCC4CCCCC4)C3=N)c2)C[C@H](Cc2ccccc2)N1CCCC1CCCCC1 [Compound 20] | 12 µg/mL | 0.325 µg/mL | > 25 µg/mL | 1.5 to 3 µg/mL | 0.33 µg/mL | 1.5 µg/mL | 26 µg/mL | 
21 | CCCCCCN1C(=N)N(CC(=O)NCCCCNC(=O)CN2C[C@H](Cc3ccccc3)N(CCCCCC)C2=N)C[C@@H]1Cc1ccccc1 [Compound 13] | 1.5 µg/mL | 0.75 µg/mL | > 25 µg/mL | 6 to 12 µg/mL | 1.5 µg/mL | 3 to 6 µg/mL | >250 µg/mL | activity against P. aeruginosa (in words) [4]: reduced activity
22 | CCCCCCN1C(=N)N(CC(=O)NCCCCCCNC(=O)CN2C[C@H](Cc3ccccc3)N(CCCCCC)C2=N)C[C@@H]1Cc1ccccc1 [Compound 14] | 1.5 µg/mL | 0.325 µg/mL | > 25 µg/mL | 3 to 6 µg/mL | 0.75 µg/mL | 1.5 µg/mL | >250 µg/mL | activity against P. aeruginosa (in words) [4]: reduced activity
